We go through 7 molecules from patent US7307101B2, “Use of 20-HETE synthesizing enzyme inhibitors as therapy for cerebral vascular disease” (MCW Research Foundation, Inc., priority 2000, dated 2007).

“And” between values parts separate entries of the source, which are not always exact repeats. Equal values may be shown once. A value given as a limit tells only on which side of the number the result lay.

The subject of data set [1] is 20-HETE synthesizing enzyme. Put plainly: 20-HETE formation in rat renal microsomes ([3H]-AA, Example 3). Format: biochemical. On the procedure: All procedure was carried out at 4° C. Renal cortex was pooled from twenty male SHR rats (6 weeks of age). They were homogenized extensively in lysis buffer (20 mM HEPES, pH 7.4, 1 mM EDTA, 100 μM p-(amidinophenyl)metanesulfonyl fluoride and 250 mM sucrose), and centrifuged at 16,000×g for 10 min. Supernatant was further centrifuged at 16,000×g for 30 min. Soluble fraction was collected and centrifuged at 200,000×g for 30 min. The resulting pellet was suspended in 50 mM MOPS buffer.
The reaction was terminated by adding formic acid and acetonitrile to a final concentration of 1% and 50%, respectively.

The test system of another data set is cerebral arteries. Particulars: read-out: EC50, constriction of cerebral arteries; cited from earlier work.
Another data set concerns the target CYP2D6 (Homo sapiens, UniProt P10635). Kind of data set: CYP2D6 activity in human liver microsomes. The text has this: (§1) Microsomes prepared from the livers of 15 humans was purchased from Nippon Nosanko.
Data set [2] has as its target human 20-HETE synthesizing enzyme. Kind of data set: Formation of 20-HETE by human renal microsomes. Format: biochemical. Particulars: read-out: IC50, formation of 20-HETE by human renal microsomes. On the procedure: All reactions were terminated by acidification with 1% formic acid. Equal volume of acetonitrile was added and finally 50% acetonitrile mixtures were subjected to HPLC analysis.

The next data set addresses T1, CYP2C19 (Homo sapiens, UniProt P33261).
T1 construct: The enzyme/substrate contained buffer, human liver microsomes and the following substrates; tissue Nippon Nosanko; host or cells: pooled human liver microsomes (15 donors)
Put plainly: CYP2C19 activity in human liver microsomes. Format: in vitro ADME.
From the text: as §1
Background: Microsomes from liver hold many membrane-bound enzymes, among them those of drug oxidation.

The next data set deals with CYP3A4 (Homo sapiens, UniProt P08684). Put plainly: in vitro. Particulars: microsomes.
From the text: as §1

The test system of the next data set is rats with SAH. Put plainly: Effect on rCBF after SAH, drug given before SAH. Format: in vivo, rat. The method, then: Animals. Experiments were performed on male Sprague-Dawley rats (9-12 weeks old), purchased from Harlan Sprague-Dawley, Inc. (Indianapolis, Ind.). The rats were housed in an Animal Care Facility at the Medical College of Wisconsin, which is approved by the American Association for the Accreditation of Laboratory Animal Care. All protocols involving animals received approval by the Animal Care Committee of the Medical College of Wisconsin.
(§2) Surgical preparation. Rats were anesthetized with ketamine (Ketaject® 20 mg/kg i.m.) and thiobutabarbital sodium (Inactin® 50 mg/kg i.p.). A cannula was placed in the trachea and the rats were artificially ventilated using a small animal ventilator (SAR-830, CWE, Inc., Ardmore, Pa.) with a mixture of 30% O2 in N2. The femoral vein was cannulated for the infusion of drug and the rats received an i.v. infusion of 0.9% NaCl solution at a rate of […] to replace fluid losses. The femoral artery was cannulated for measurement of mean arterial pressure (MAP) and arterial blood gases. Endtidal partial pressure of carbon dioxide (pCO2) was controlled at 38 mmHg by adjusting the minute ventilation according to the reading of an CO2 analyzer (Capstar-100 IITC, Inc., Woodland Hills, Calif.). Blood samples were collected at the beginning and end of the experiment and analyzed using a blood gas analyzer (ABL 300, Radiometer, Copenhagen, Denmark) to validate the endtidal pCO2 readings. Anesthesia was maintained by administering additional amounts of thiobutabarbital (8 mg/kg i.v.) as needed. Rectal body temperature was maintained at 37±1° C.
Induction of SAH and measurement of cerebral blood flow. SAH was induced by injection of 0.3 ml autologous arterial blood into the Cisterna Magna using a modification of a posterior cranio-cervical approach of a model of SAH. Delgado T J et al., Stroke 16: 595-602 (1985); Solomon R A et al., Stroke 16: 58-64 (1985). The head of the rat was placed in a stereotactic head holder and the atlanto-occipital membrane was exposed by bluntly separating the overlying neck muscles in the midline. The occipital bone and the atlas were visualized. A 30 gauge needle attached to PE-10 was inserted using a stereomicroscope into the Cistema Magna by penetrating the atlanto-occipital membrane. Then, 0.3 ml of freshly drawn unheparinized arterial blood was injected into the Cistema Magna at a rate of 35 μl/min using a syringe pump. This created a massive SAH that was confirmed in all rats at autopsy. Blood was found overlying the cerebello-medullary junction posteriorly and around the basal artery and the vessels of the Circle of Willis.
Cerebral blood flow (CBF) was continuously measured using laser Doppler flowmetry through a thinned cranial window. […] A PF 103 laser Doppler flow (LDF) probe was positioned over the cranial window and CBF was monitored using a PF-3 laser Doppler flowmeter (Perimed, Stockholm, Sweden).
Other animals received 17-ODYA (1.5 nmol) or vehicle in a volume of 50 μl that was injected directly into the Cistema Magna using a micromanipulator and a 30 gauge needle. The CBF recorded over the last 5 minutes of the control period immediately before initiation of SAH served as the control value. […] CBF was recorded for 2 min intervals at 10, 20, 30, 60, 90 and 120 minutes after completion of the injection of the blood. The CBF data are expressed as percentage change from control.

Data set [3] can be described thus: Physiological parameters (MAP, endtidal pCO2) during the SAH experiment. Format: in vivo, rat. The note with it: rats, any time. The method, then:
as §2

A further data set deals with 20-HETE in CSF. Put plainly: 20-HETE concentration in CSF after SAH. Format: in vivo, rat. Particulars: rats, 2 hr after SAH, drug given prior to SAH.
A further data set deals with CYP2C9 (Homo sapiens, UniProt P11712). Put plainly: in vitro.
From the text: as §1

The test system of another data set is 20-HETE formation. The note with it: read-out: IC50 for inhibition of 20-HETE formation; cited from earlier work.
For data set [4] the following is noted: given systemically; cited from earlier work.
A further data set has as its system cerebral blood flow. The note with it: intracerebroventricular injection; cited from earlier work.
[5] abbreviates: only at very high concentrations.
Where [6] appears, read: positive control, concentration not given.
Setting [7] is: human, microsomes, % Inhibition (duplicate) CYP2D6.

Chain of CYP2C9 (P11712 whole entry): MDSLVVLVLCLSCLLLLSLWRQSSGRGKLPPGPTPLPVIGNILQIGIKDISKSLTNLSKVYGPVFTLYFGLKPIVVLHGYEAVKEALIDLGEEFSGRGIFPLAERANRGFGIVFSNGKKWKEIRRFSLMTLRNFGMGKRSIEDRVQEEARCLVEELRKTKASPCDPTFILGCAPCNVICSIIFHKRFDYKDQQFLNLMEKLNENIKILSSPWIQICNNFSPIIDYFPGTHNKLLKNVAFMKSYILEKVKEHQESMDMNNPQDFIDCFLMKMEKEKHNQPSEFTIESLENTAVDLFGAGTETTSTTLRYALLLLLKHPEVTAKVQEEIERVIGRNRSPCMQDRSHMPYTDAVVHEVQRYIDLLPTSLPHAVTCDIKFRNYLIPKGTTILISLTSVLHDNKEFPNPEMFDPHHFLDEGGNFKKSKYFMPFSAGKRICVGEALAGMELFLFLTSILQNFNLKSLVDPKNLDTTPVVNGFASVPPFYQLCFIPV
Chain of CYP2D6 (P10635 whole entry): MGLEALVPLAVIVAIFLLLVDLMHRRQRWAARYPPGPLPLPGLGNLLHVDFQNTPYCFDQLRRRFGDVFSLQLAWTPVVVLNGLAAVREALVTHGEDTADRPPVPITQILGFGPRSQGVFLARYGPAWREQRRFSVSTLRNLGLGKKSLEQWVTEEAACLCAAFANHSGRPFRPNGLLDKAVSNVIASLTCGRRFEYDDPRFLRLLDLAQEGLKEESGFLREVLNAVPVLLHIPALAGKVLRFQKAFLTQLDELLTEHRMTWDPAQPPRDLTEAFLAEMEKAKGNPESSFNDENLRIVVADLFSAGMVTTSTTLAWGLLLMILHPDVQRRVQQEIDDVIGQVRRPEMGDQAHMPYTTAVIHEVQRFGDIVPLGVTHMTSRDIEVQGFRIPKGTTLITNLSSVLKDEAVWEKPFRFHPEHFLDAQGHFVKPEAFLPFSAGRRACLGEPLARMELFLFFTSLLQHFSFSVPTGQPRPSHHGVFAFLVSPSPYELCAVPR
Chain of CYP3A4 (P08684 whole entry): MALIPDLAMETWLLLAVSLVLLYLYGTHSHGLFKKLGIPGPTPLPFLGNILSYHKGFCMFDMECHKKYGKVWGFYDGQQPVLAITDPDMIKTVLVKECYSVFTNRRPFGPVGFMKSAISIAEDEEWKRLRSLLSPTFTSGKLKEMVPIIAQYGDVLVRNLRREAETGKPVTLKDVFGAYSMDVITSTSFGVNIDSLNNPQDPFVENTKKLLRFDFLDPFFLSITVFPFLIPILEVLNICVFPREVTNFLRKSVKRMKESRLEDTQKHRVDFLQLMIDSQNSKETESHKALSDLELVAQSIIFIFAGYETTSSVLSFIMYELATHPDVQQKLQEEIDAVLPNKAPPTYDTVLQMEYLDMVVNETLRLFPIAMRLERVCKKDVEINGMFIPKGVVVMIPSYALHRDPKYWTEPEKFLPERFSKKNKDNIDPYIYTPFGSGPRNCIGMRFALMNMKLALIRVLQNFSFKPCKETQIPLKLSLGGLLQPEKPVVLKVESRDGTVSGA
T1 sequence (P33261 whole entry): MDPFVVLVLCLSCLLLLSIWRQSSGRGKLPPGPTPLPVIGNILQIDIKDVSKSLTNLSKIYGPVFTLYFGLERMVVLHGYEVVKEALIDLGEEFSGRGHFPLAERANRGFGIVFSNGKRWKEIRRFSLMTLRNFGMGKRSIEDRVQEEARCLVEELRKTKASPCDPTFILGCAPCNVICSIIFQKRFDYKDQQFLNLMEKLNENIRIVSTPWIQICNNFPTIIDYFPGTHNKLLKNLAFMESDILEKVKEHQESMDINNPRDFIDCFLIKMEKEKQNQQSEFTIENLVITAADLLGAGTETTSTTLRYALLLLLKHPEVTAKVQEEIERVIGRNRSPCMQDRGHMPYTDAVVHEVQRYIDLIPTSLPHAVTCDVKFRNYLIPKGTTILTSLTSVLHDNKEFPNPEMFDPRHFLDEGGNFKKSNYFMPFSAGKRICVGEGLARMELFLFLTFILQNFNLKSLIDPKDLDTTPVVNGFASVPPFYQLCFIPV
Experimental for 20-HETE in CSF: Measurement of 20-HETE in CSF. At the end of each experiment, CSF was collected from the Cisterna Magna using a 1 ml syringe and a 30 gauge needle. […] 20-HETE concentration in CSF was measured using a new fluorescent HPLC assay that was recently described. […] Briefly, 50 ng of an internal standard 20-hydroxyeicosa-6(Z), 15(Z)-dienoic acid (WIT-002) was added to the CSF samples (50 μl). The samples were extracted with 1 mL of ethyl acetate, the extract was dried under argon and the lipid fraction was purified on a Sep-Pak Vac™ column (cat. no. WAT054955, Waters Corporation, Milford, Mass.). […] N,N-diisopropylethylamine (10 μl) was added to catalyze the reaction. The sample was reacted for 30 min at room temperature. […] The amount of 20-HETE in a sample was determined by comparing the area of the 20-HETE peak to that of the internal standard.

In the case of `Clc1ccc(COC(Cn2ccnc2)c2ccc(Cl)cc2Cl)c(Cl)c1` (stereo not drawn) [miconazole], in data set [1] (setting [5]), the “concentrations at which the formation of 20-HETE was inhibited” value fell in the range of 10 to 20 µg/mL and the “concentrations at which the formation of 20-HETE was inhibited (molar)” value is 21 to 42 µM.

In the case of `O=C(O)CCCC=CCC=CCC=CCC=CCCCCCO` [20-HETE, 20-hydroxyeicosetetraenoic acid], in the data set on cerebral arteries, the EC50 – broadly, the concentration at which the effect is half-maximal – was under 10 nM.

Regarding `C=C[C@H]1C[N@@]2CC[C@H]1C[C@@H]2[C@@H](O)c1ccnc2ccc(OC)cc12` [Quinidine], at CYP2D6 (setting [6]), the “% Inhibition (duplicate) CYP2D6” value is on record as 91%.

Take `Nn1nnc2ccccc21` [1-ABT, 1-aminobenzotriazole]: in data set [1] (SHR rat renal microsomes, nonselective inhibitor), the “IC50, formation of both EETs and 20-HETE” value is reported as “approximately 20 μg/ml”. The concentration for half-maximal inhibition (IC50) (commonly the concentration needed to halve the response being measured) in data set [1] (read-out: IC50, formation of both EETs and 20-HETE (molar), SHR rat renal microsomes, nonselective inhibitor) was about 150000 nM; in data set [2] it was 38500 ± 14900 nM. In addition, the “% Inhibition (duplicate) CYP2C19” value on CYP2C19 (inhibitor 100 μM, 100 µM) is 40-80% and 75%. Further, the “% Inhibition (duplicate) CYP2D6” value on CYP2D6 (human, microsomes, 100 µM) worked out at 42%. On CYP2D6 (setting [7]), the inhibition – broadly, the change of the read-out against control, counted positive when it falls – at 100 µM is 40 to 80%. Also, at CYP3A4 (100 µM), the “% Inhibition (duplicate) CYP3A4” value turned out to be 81%.

Regarding `C#CCCCCCCCCCCCCCCCC(=O)O` [17-ODYA, 17-Octadecynoic acid], in the data set on rats with SAH (1.5 nmol into the Cisterna Magna of rats), the “fall in cerebral blood flow following SAH” value is listed as “completely blocked”. In addition, the “reduction of the initial fall in rCBF at 10 min” value with rats with SAH (rats pretreated before SAH, HET0016 10 mg/kg i.v. 30 min prior, 17-ODYA 1.5 nmol intrathecally) was “about 40%”. Also, in the data set on rats with SAH (rats pretreated before SAH, HET0016 10 mg/kg i.v., 17-ODYA 1.5 nmol intrathecally), the “time after induction of SAH within which rCBF recovered fully to values not different from control” value is at most 90 min. Moreover, the “MAP (blood pressure) versus vehicle” value in data set [3] is given as “no difference”. For the same molecule, the “endtidal pCO2 versus vehicle” value in data set [3] was “no significant differences”. Further, the “concentration of 20-HETE in the CSF versus vehicle” value in the data set on 20-HETE in CSF is on record as “significantly lower concentration”. The IC50 in [2] is 1800 ± 800 nM; with 20-HETE formation, 1000 nM. In addition, the inhibition at 10 µM is 10% at CYP2C19 (human, human liver microsomes, probe 14C-(S)-mephenyloin (4′-hydroxylation), inhibitor 10 μM, read-out: % Inhibition (duplicate) CYP2C19); 20 to 30% on CYP2C9 (human, microsomes, % Inhibition (duplicate) CYP2C9); -3% at CYP2D6 (setting [7]); 20 to 30% on CYP3A4 (% Inhibition (duplicate) CYP3A4). Further, the “% Inhibition (duplicate) CYP2C9” value on CYP2C9 (human, microsomes, 10 µM) came to 23%. Besides, the “% Inhibition (duplicate) CYP3A4” value on CYP3A4 (10 µM) turned out to be 29%. The “crossing of the blood brain barrier” value in data set [4] is listed as “does not cross the blood brain barrier”.

As to `Nc1ccc(S(=O)(=O)Nc2ccnn2-c2ccccc2)cc1` [sulfaphenazol], at CYP2C9 (setting [6]), the “% Inhibition (duplicate) CYP2C9” value came to 91%.

With `CS(=O)(=O)NC(=O)CCCCCCCCCC=C(Br)Br` [DDMS], the IC50 with 20-HETE formation is 3000 nM. The “crossing of the blood brain barrier” value in data set [4] is given as “does not cross the blood-brain barrier”. Further, in the data set on cerebral blood flow, the “effect on baseline cerebral blood flow” value was “no effect”.
